From patent EP4653451A1, “POLYPEPTIDE COMPOUND AND USE THEREOF” (Chengdu New Radiomedicine Technology Co., Ltd., priority 2023, dated 2024)
Structures can show the parent of a compound that is named as a salt. Where two headings read alike, the source gives them in different places. Numbered stars: 1 amine (or outer) side, 2 acyl side, 3 side chain; on linkers, the order of the positions; unused ones are H or OH. Bridge positions count the residues as written; N and C are the ends. Square brackets hold non-standard residues; d marks the D form. Peptide text beside a SMILES is read from it. * marks the point of attachment. TBMB(SCH2CH2NH-DOTA) = O=C(O)CN1CCN(CC(=O)O)CCN(CC(=O)NCCSCc2cc(C[*:1])cc(C[*:2])c2)CCN(CC(=O)O)CC1; X4 = CC(=O)NC[C@H](CSCc1cccc(C[*:1])c1)N[*:2]; X6 = NC[C@H](CSCc1cccc(C[*:1])c1)N[*:2]; 1Nal = N[C@@H](Cc1cccc2ccccc12)C(=O)O; d1Nal = N[C@H](Cc1cccc2ccccc12)C(=O)O; mXylylene = c1cc(C[*:1])cc(C[*:2])c1; Cha = N[C@@H](CC1CCCCC1)C(=O)O; d(β3hC) = N[C@H](CS)CC(=O)O; β3hC = N[C@@H](CS)CC(=O)O; Hexanoyl = CCCCCC(=O)*

Columns and labels:
[1] = biological target: T1, human recombinant DPP4 protein (Homo sapiens, UniProt P27487); assay: Inhibitory activity against DPP4 protease activity (H-Gly-Pro-AMC fluorescence); assay type: biochemical; conditions: 125 pM DPP4 working solution, 90 min at room temperature
T1 construct: purchased Acrobiosystems DP4-H5211
Description: The human recombinant DPP4 protein (Acrobiosystems, DP4-H5211) was formulated into a 125 pM working solution with an assay buffer (20 mM Tris-HCl, 100 mM NaCl), and the DPP4 substrate (H-Gly-Pro-AMC.HBr (LEONBIO, 115035-46-6)) was diluted to a 250 µM DPP4 substrate working solution with the assay buffer. 40 µl of DPP4 working solution and 20 µl of compounds at different concentrations (4-fold dilution) were taken, then 40 µl of DPP4 substrate working solution was added, and the mixture was uniformly mixed on a shaker at room temperature for 1 min. The uniformly mixed mixture was reacted at room temperature in the dark for 90 min. Reading was made by microplate reader at excitation and emission wavelengths of 380 nm and 460 nm. The original data was saved, and the IC50 value of the compound was obtained by analyzing the data with Graphpad PRISM.

[2] = biological target: T2, human recombinant FAP protein (Homo sapiens, UniProt Q12884); assay: Inhibitory activity against FAP protease activity (Z-Gly-Pro-AMC fluorescence); assay type: biochemical; conditions: for inhibitory activity against FAP protease activity: in words
T2 construct: purchased Acrobiosystems FAP-H82Q6
T2 sequence (Q12884 1-760): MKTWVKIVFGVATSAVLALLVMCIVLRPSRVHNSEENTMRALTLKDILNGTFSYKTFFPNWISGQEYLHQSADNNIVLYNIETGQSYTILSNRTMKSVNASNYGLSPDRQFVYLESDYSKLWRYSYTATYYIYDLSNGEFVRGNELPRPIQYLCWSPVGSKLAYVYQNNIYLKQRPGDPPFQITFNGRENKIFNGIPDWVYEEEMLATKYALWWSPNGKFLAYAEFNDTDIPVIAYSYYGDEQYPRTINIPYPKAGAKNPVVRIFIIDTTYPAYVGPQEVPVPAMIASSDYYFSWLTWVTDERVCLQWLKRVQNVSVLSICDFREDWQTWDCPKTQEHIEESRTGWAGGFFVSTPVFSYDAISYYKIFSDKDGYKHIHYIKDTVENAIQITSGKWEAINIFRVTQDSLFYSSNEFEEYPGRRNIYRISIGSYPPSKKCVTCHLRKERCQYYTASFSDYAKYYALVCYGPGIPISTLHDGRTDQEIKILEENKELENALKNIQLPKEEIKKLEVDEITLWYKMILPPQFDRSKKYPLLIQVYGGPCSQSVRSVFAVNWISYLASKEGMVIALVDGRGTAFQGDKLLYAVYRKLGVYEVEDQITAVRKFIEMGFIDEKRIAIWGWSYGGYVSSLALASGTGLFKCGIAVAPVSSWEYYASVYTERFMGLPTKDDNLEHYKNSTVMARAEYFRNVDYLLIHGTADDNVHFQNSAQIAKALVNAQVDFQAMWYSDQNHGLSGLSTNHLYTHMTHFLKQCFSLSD
Description: The human recombinant FAP protein (Acrobiosystems, FAP-H82Q6) was diluted to a 125 pM FAP working solution with an assay buffer (50 mM Tris-HCl, 1 M NaCl, 1 mg/mL BSA, pH 7.5), and the FAP substrate (Z-Gly-Pro-AMC (LEONBIO, 68542-93-8)) was diluted to a 150 µM substrate working solution with the assay buffer. 40 µl of FAP working solution and 20 µl of compounds at different concentrations (4-fold dilution) were taken, then 40 µl of substrate working solution was added, and the mixture was uniformly mixed on a shaker at room temperature for 1 min. The uniformly mixed mixture was reacted at room temperature in the dark for 90 min. The fluorescence value Ex = 380 nm/Em = 460 nm was read by using a microplate reader. The original data was saved, and the IC50 value of the compound was obtained by using the original data or the Inhibition% via calculation and analyzing the data with Graphpad PRISM.

[3] = 125 pM FAP working solution, 90 min at room temperature, read-out: FAP IC50

T1 sequence (P27487 whole entry): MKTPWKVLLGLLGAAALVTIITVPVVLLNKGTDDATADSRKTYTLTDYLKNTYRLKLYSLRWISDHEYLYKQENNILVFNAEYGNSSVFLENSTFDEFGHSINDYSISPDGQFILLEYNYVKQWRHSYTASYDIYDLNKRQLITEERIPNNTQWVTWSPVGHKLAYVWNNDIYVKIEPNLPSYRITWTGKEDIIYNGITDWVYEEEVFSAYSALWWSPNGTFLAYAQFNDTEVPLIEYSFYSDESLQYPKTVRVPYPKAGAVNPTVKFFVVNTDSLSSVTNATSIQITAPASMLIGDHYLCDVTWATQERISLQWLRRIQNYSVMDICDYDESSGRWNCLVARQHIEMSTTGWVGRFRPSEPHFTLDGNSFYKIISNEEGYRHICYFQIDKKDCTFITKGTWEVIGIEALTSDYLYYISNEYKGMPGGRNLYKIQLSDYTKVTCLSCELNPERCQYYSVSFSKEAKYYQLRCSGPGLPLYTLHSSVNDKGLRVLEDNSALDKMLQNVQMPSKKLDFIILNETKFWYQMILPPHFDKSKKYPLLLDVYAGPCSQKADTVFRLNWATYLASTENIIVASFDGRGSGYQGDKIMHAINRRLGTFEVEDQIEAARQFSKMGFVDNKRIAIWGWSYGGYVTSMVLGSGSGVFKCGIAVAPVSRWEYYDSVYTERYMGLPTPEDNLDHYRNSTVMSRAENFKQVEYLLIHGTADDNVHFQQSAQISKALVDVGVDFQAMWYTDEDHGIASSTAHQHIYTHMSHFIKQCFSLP

IC50 [2, 3] [nM]	inhibitory activity against FAP protease activity [2]	SMILES	IC50 [1] [nM]	IC50 [2] [nM]
		CCCCCC(=O)N[C@H]1CSCc2cccc(c2)CSC[C@@H](CC(=O)N[C@@H](CC(=O)O)C(N)=O)NC(=O)[C@H](Cc2ccccc2)NC(=O)[C@H](CCC(N)=O)NC(=O)[C@H]([C@@H](C)O)NC(=O)[C@@H]2CCCN2C(=O)[C@@H]2CCCN2C1=O [Compound 1, Hex-Cys-Pro-Pro-Thr-Gln-Phe-beta-HomoCys-Asp-NH2 (Cys bridge DBMB) trifluoroacetate] (Hexanoyl-CPPTQF[β3hC]D-NH2; linker 1-7 via mXylylene)	> 10000	2.91
		CCCCCC(=O)N[C@H]1CSCc2cccc(c2)CSC[C@@H](CC(=O)O)NC(=O)[C@H](Cc2ccccc2)NC(=O)[C@H](CCC(N)=O)NC(=O)[C@H]([C@@H](C)O)NC(=O)[C@@H]2CCCN2C(=O)[C@@H]2CCCN2C1=O [Compound 2, Hex-Cys-Pro-Pro-Thr-Gln-Phe-beta-HomoCys-OH (Cys bridge DBMB) trifluoroacetate]	> 10000	4.24
		CCCCCC(=O)N[C@H]1CSCc2cccc(c2)CSC[C@@H](C(=O)O)NC(=O)[C@H](CC2CCCCC2)NC(=O)[C@H](CCC(N)=O)NC(=O)[C@H]([C@@H](C)O)NC(=O)[C@@H]2CCCN2C(=O)[C@@H]2CCCN2C1=O [Compound 3, Hex-Cys-Pro-Pro-Thr-Gln-Cha-Cys-OH (Cys bridge DBMB) trifluoroacetate] (Hexanoyl-CPPTQ[Cha]C-OH; linker 1-7 via mXylylene)	> 10000	25.1
		CCCCCC(=O)N[C@H]1CSCc2cccc(c2)CSC[C@@H](C(=O)O)NC(=O)[C@H](Cc2ccccc2)NC(=O)[C@H](CCC(N)=O)NC(=O)[C@H]([C@@H](C)O)NC(=O)[C@@H]2CCCN2C(=O)[C@@H]2CCCN2C1=O [Compound 3BP-4186, reference compound]	> 10000	98.8
		CCCCCC(=O)N[C@H]1CSCc2cccc(c2)CSC[C@@H](CN)NC(=O)[C@H](Cc2ccccc2)NC(=O)[C@H](CCC(N)=O)NC(=O)[C@H]([C@@H](C)O)NC(=O)[C@@H]2CCCN2C(=O)[C@@H]2CCCN2C1=O [Compound 4, Hex-Cys-Pro-Pro-Thr-Gln-Phe-Cys-CH2NH2 (Cys bridge DBMB) trifluoroacetate] (Hexanoyl-CPPTQF; linker 1-C via X6)		11.3
		CCCCCC(=O)N[C@H]1CSCc2cccc(c2)CSC[C@@H](CNC(C)=O)NC(=O)[C@H](Cc2ccccc2)NC(=O)[C@H](CCC(N)=O)NC(=O)[C@H]([C@@H](C)O)NC(=O)[C@@H]2CCCN2C(=O)[C@@H]2CCCN2C1=O [Compound 5, Hex-Cys-Pro-Pro-Thr-Gln-Phe-Cys-CH2NHAc (Cys bridge DBMB) trifluoroacetate] (Hexanoyl-CPPTQF; linker 1-C via X4)	> 10000	1.8
7.25		CCCCCC(=O)N[C@H]1CSCc2cccc(c2F)CSC[C@@H](C(=O)O)NC(=O)[C@H](Cc2ccccc2)NC(=O)[C@H](CCC(N)=O)NC(=O)[C@H]([C@@H](C)O)NC(=O)[C@@H]2CCCN2C(=O)[C@@H]2CCCN2C1=O [Compound 6, Hex-Cys-Pro-Pro-Thr-Gln-Phe-Cys-OH (Cys bridge 2,6-bis(bromomethyl)fluorobenzene) trifluoroacetate]	> 10000	
14.7	good inhibitory activity	CCCCCC(=O)N[C@@H]1CSCc2cc(CSCCNC(=O)CN3CCN(CC(=O)O)CCN(CC(=O)O)CCN(CC(=O)O)CC3)cc(c2)CSC[C@@H](CC(=O)O)NC(=O)[C@H](Cc2cccc3ccccc23)NC(=O)[C@H](CCC(N)=O)NC(=O)[C@H]([C@@H](C)O)NC(=O)[C@@H]2CCCN2C(=O)[C@@H]2CCCN2C1=O [Compound 78, Hexanoyl-(D-Cys(tMeBn(DOTA-AET))-Pro-Pro-Thr-Gln-1Nal-betahomoCys)-OH] (Hexanoyl-[dC]PPTQ[1Nal][β3hC]-OH; linker 1-7 via TBMB(SCH2CH2NH-DOTA))		
> 5000		CCCCCC(=O)N[C@H]1CSCc2cc(CSCCNC(=O)CN3CCN(CC(=O)O)CCN(CC(=O)O)CCN(CC(=O)O)CC3)cc(c2)CSC[C@@H](CC(=O)O)NC(=O)[C@H](Cc2cccc3ccccc23)NC(=O)[C@H](CCC(N)=O)NC(=O)[C@H]([C@@H](C)O)NC(=O)[C@@H]2CCCN2C(=O)[C@H]2CCCN2C1=O [Compound 79, Hexanoyl-(Cys(tMeBn(DOTA-AET))-D-Pro-Pro-Thr-Gln-1Nal-betahomoCys)-OH] (Hexanoyl-C[dP]PTQ[1Nal][β3hC]-OH; linker 1-7 via TBMB(SCH2CH2NH-DOTA))		
566		CCCCCC(=O)N[C@H]1CSCc2cc(CSCCNC(=O)CN3CCN(CC(=O)O)CCN(CC(=O)O)CCN(CC(=O)O)CC3)cc(c2)CSC[C@@H](CC(=O)O)NC(=O)[C@H](Cc2cccc3ccccc23)NC(=O)[C@H](CCC(N)=O)NC(=O)[C@H]([C@@H](C)O)NC(=O)[C@H]2CCCN2C(=O)[C@@H]2CCCN2C1=O [Compound 80, Hexanoyl-(Cys(tMeBn(DOTA-AET))-Pro-D-Pro-Thr-Gln-1Nal-betahomoCys)-OH] (Hexanoyl-CP[dP]TQ[1Nal][β3hC]-OH; linker 1-7 via TBMB(SCH2CH2NH-DOTA))		
70.6	good inhibitory activity	CCCCCC(=O)N[C@H]1CSCc2cc(CSCCNC(=O)CN3CCN(CC(=O)O)CCN(CC(=O)O)CCN(CC(=O)O)CC3)cc(c2)CSC[C@@H](CC(=O)O)NC(=O)[C@H](Cc2cccc3ccccc23)NC(=O)[C@H](CCC(N)=O)NC(=O)[C@@H]([C@H](C)O)NC(=O)[C@@H]2CCCN2C(=O)[C@@H]2CCCN2C1=O [Compound 81, Hexanoyl-(Cys(tMeBn(DOTA-AET))-Pro-Pro-D-Thr-Gln-1Nal-betahomoCys)-OH] (Hexanoyl-CPP[dT]Q[1Nal][β3hC]-OH; linker 1-7 via TBMB(SCH2CH2NH-DOTA))		
209		CCCCCC(=O)N[C@H]1CSCc2cc(CSCCNC(=O)CN3CCN(CC(=O)O)CCN(CC(=O)O)CCN(CC(=O)O)CC3)cc(c2)CSC[C@@H](CC(=O)O)NC(=O)[C@H](Cc2cccc3ccccc23)NC(=O)[C@@H](CCC(N)=O)NC(=O)[C@H]([C@@H](C)O)NC(=O)[C@@H]2CCCN2C(=O)[C@@H]2CCCN2C1=O [Compound 82, Hexanoyl-(Cys(tMeBn(DOTA-AET))-Pro-Pro-Thr-D-Gln-1Nal-betahomoCys)-OH] (Hexanoyl-CPPT[dQ][1Nal][β3hC]-OH; linker 1-7 via TBMB(SCH2CH2NH-DOTA))		
1040		CCCCCC(=O)N[C@H]1CSCc2cc(CSCCNC(=O)CN3CCN(CC(=O)O)CCN(CC(=O)O)CCN(CC(=O)O)CC3)cc(c2)CSC[C@@H](CC(=O)O)NC(=O)[C@@H](Cc2cccc3ccccc23)NC(=O)[C@H](CCC(N)=O)NC(=O)[C@H]([C@@H](C)O)NC(=O)[C@@H]2CCCN2C(=O)[C@@H]2CCCN2C1=O [Compound 83, Hexanoyl-(Cys(tMeBn(DOTA-AET))-Pro-Pro-Thr-Gln-D-1Nal-betahomoCys)-OH] (Hexanoyl-CPPTQ[d1Nal][β3hC]-OH; linker 1-7 via TBMB(SCH2CH2NH-DOTA))		
6.7	good inhibitory activity	CCCCCC(=O)N[C@H]1CSCc2cc(CSCCNC(=O)CN3CCN(CC(=O)O)CCN(CC(=O)O)CCN(CC(=O)O)CC3)cc(c2)CSC[C@H](CC(=O)O)NC(=O)[C@H](Cc2cccc3ccccc23)NC(=O)[C@H](CCC(N)=O)NC(=O)[C@H]([C@@H](C)O)NC(=O)[C@@H]2CCCN2C(=O)[C@@H]2CCCN2C1=O [Compound 84, Hexanoyl-(Cys(tMeBn(DOTA-AET))-Pro-Pro-Thr-Gln-1Nal-D-betahomoCys)-OH] (Hexanoyl-CPPTQ[1Nal][d(β3hC)]-OH; linker 1-7 via TBMB(SCH2CH2NH-DOTA))		
